Values joined by “and” are separate entries in the source; they are usually repeats but may differ in a detail not shown here. Identical values can stand only once.
Biological target: T1, STS (Homo sapiens, UniProt P08842)
T1 construct: expressed in transfected cells; host or cells: HEK-293 cells stably transfected with STS (G418 selection), obtained from Dr. Van Luu-The; used as freeze-thaw homogenate
T1 sequence (P08842 22-583): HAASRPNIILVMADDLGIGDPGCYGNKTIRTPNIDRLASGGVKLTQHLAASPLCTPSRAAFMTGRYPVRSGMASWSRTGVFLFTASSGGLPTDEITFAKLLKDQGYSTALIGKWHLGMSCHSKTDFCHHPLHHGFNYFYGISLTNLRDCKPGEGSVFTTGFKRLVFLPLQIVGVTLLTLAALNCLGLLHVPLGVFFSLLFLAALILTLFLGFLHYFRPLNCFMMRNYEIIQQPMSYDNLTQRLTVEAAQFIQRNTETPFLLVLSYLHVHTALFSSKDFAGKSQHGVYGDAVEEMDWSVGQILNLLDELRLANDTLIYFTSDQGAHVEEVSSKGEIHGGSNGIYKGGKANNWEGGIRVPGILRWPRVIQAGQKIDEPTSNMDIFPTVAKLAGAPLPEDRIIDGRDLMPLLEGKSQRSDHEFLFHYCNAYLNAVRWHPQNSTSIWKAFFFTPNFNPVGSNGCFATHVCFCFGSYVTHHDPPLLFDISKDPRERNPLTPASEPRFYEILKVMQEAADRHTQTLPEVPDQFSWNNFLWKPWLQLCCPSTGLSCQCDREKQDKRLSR
Test: STS inhibition of libraries 1-EO to 4-EO, homogenate of STS transfected HEK-293 cells
Format: biochemical
Settings: mean ± SEM, triplicate
Protocol: The enzymatic assay was performed using homogenate of STS transfected HEK-293 cells as the source of enzyme activity. The transformation of [^3H]-E1S into [^3H]-E1 was measured using scintillation counting of labeled E1S and E1 in the aqueous and organic phases, respectively. Newly synthesized sulfamate compounds were tested at two concentrations (0.1 μM and 1 μM). Libraries 1-EO and 2-EO were synthesized using the p- and m-benzamide spacers as 1st level of molecular diversity and the same wide variety of secondary amines as 2nd level of diversity (Table 2), which were chosen in a somewhat random fashion while including a different pattern, format and heteroatom. […] Compounds 1-EO-07, 1-EO-09 and 1-EO-10 represent a starting point for optimization, as they show more than 36% of inhibition when tested at a concentration of 0.1 μM. These compounds have relatively hydrophobic substituents compared to the rest of the library members. […] The average log P value for the rest of the library, excluding these three compounds, is 1.93.
This enzymatic assay was carried out according to a procedure previously described for the transformation of substrate [^3H]-E1S (100 μM) into [^3H]-E1 by homogenated HEK-293 cells over-expressing the enzyme activity.^56,73

Row | SMILES | STS inhibition (%) (0.1 μM) | STS inhibition (%) (1 μM) | STS inhibition (%) (1 μM, listed as 1-EO-9, 1 µM)
1 | NS(=O)(=O)Oc1ccc2c(c1)CN(C(=O)c1ccc(CN3CCOCC3)cc1)CC2 [1-EO-01] | 10.9 ± 3.5% | 50.6 ± 1.2% | –
2 | NS(=O)(=O)Oc1ccc2c(c1)CN(C(=O)c1ccc(CN3CCCCC3)cc1)CC2 [1-EO-02] | 11.5 ± 2.4% | 38.3 ± 3.6% | –
3 | NS(=O)(=O)Oc1ccc2c(c1)CN(C(=O)c1ccc(CN3CCSCC3)cc1)CC2 [1-EO-03] | 32.3 ± 1.0% | 80.2 ± 0.9% | –
4 | CN1CCN(Cc2ccc(C(=O)N3CCc4ccc(OS(N)(=O)=O)cc4C3)cc2)CC1 [1-EO-04] | 2.9 ± 0.5% | 23.3 ± 1.3% | –
5 | NS(=O)(=O)Oc1ccc2c(c1)CN(C(=O)c1ccc(CN3CCN(Cc4ccccc4)CC3)cc1)CC2 [1-EO-05] | 20.8 ± 3.7% | 75.8 ± 1.6% | –
6 | NS(=O)(=O)Oc1ccc2c(c1)CN(C(=O)c1ccc(CN3CCN(c4ncccn4)CC3)cc1)CC2 [1-EO-06] | 14.7 ± 3.6% | 41.9 ± 0.8% | –
7 | NS(=O)(=O)Oc1ccc2c(c1)CN(C(=O)c1ccc(CN3CCC(Cc4ccccc4)CC3)cc1)CC2 [1-EO-07] | – | 81.3 ± 0.5% | –
8 | NS(=O)(=O)Oc1ccc2c(c1)CN(C(=O)c1ccc(CN3CCC(N4CCCCC4)CC3)cc1)CC2 [1-EO-08] | 8.5 ± 1.2% | 53.7 ± 4.7% | –
9 | CCN(Cc1ccccc1)Cc1ccc(C(=O)N2CCc3ccc(OS(N)(=O)=O)cc3C2)cc1 [1-EO-09] | – | 83.6 ± 0.2% | 84%
10 | CCCN(CCC)Cc1ccc(C(=O)N2CCc3ccc(OS(N)(=O)=O)cc3C2)cc1 [1-EO-10] | – | 84.7 ± 0.2% | –
11 | NS(=O)(=O)Oc1ccc2c(c1)CN(C(=O)c1cccc(CN3CCOCC3)c1)CC2 [2-EO-01] | 0.0 ± 4.7% | 20.9 ± 4.4% | –
12 | NS(=O)(=O)Oc1ccc2c(c1)CN(C(=O)c1cccc(CN3CCCCC3)c1)CC2 [2-EO-02] | 1.0 ± 5.1% | 11.9 ± 2.6% | –
13 | NS(=O)(=O)Oc1ccc2c(c1)CN(C(=O)c1cccc(CN3CCSCC3)c1)CC2 [2-EO-03] | 2.3 ± 0.1% | 39.6 ± 2.8% | –
14 | CN1CCN(Cc2cccc(C(=O)N3CCc4ccc(OS(N)(=O)=O)cc4C3)c2)CC1 [2-EO-04] | 0.0 ± 12.2% | 12.6 ± 2.3% | –
15 | NS(=O)(=O)Oc1ccc2c(c1)CN(C(=O)c1cccc(CN3CCN(Cc4ccccc4)CC3)c1)CC2 [2-EO-05] | 0.0 ± 3.1% | 23.7 ± 0.6% | –
16 | NS(=O)(=O)Oc1ccc2c(c1)CN(C(=O)c1cccc(CN3CCN(c4ncccn4)CC3)c1)CC2 [2-EO-06] | 1.6 ± 1.6% | 24.4 ± 0.4% | –
17 | NS(=O)(=O)Oc1ccc2c(c1)CN(C(=O)c1cccc(CN3CCC(Cc4ccccc4)CC3)c1)CC2 [2-EO-07] | 1.4 ± 0.6% | 41.9 ± 2.7% | –
18 | NS(=O)(=O)Oc1ccc2c(c1)CN(C(=O)c1cccc(CN3CCC(N4CCCCC4)CC3)c1)CC2 [2-EO-08] | 0.0 ± 2.4% | 8.0 ± 1.1% | –
19 | CCN(Cc1ccccc1)Cc1cccc(C(=O)N2CCc3ccc(OS(N)(=O)=O)cc3C2)c1 [2-EO-09] | 17% and 17.3 ± 2.5% | 69.0 ± 0.0% | –
20 | CCCN(CCC)Cc1cccc(C(=O)N2CCc3ccc(OS(N)(=O)=O)cc3C2)c1 [2-EO-10] | 8.3 ± 0.0% | 54.8 ± 1.2% | –
21 | CCCN(Cc1ccccc1)Cc1ccc(C(=O)N2CCc3ccc(OS(N)(=O)=O)cc3C2)cc1 [3-EO-01] | 64.8 ± 3.8% | 94.3 ± 0.3% | –

Row | SMILES | STS inhibition (%) (0.1 μM) | STS inhibition (%) (1 μM) | STS inhibition (%) (1 μM, listed as 1-EO-9, 1 µM)
22 | NS(=O)(=O)Oc1ccc2c(c1)CN(C(=O)c1ccc(CN(CCO)Cc3ccccc3)cc1)CC2 [3-EO-02] | 27.9 ± 2.6% | 78.0 ± 1.1% | –
23 | NS(=O)(=O)Oc1ccc2c(c1)CN(C(=O)c1ccc(CN(CCCO)Cc3ccccc3)cc1)CC2 [3-EO-03] | 5.7 ± 4.4% | 64.3 ± 1.6% | –
24 | CN(C)CCN(Cc1ccccc1)Cc1ccc(C(=O)N2CCc3ccc(OS(N)(=O)=O)cc3C2)cc1 [3-EO-04] | 13.9 ± 4.8% | 57.8 ± 3.4% | –
25 | CN(C)CCCN(Cc1ccccc1)Cc1ccc(C(=O)N2CCc3ccc(OS(N)(=O)=O)cc3C2)cc1 [3-EO-05] | 16.2 ± 4.6% | 61.6 ± 4.9% | –
26 | CN(CCN1CCCCC1)Cc1ccc(C(=O)N2CCc3ccc(OS(N)(=O)=O)cc3C2)cc1 [3-EO-06] | 0.3 ± 1.7% | 26.8 ± 13.5% | –
27 | CN(CCCN1CCCCC1)Cc1ccc(C(=O)N2CCc3ccc(OS(N)(=O)=O)cc3C2)cc1 [3-EO-07] | 17.4 ± 12.3% | 40.7 ± 8.6% | –
28 | CN(C)CCN(CCN(C)C)Cc1ccc(C(=O)N2CCc3ccc(OS(N)(=O)=O)cc3C2)cc1 [3-EO-08] | 3.8 ± 9.6% | 15.9 ± 21.5% | –
29 | CC(C)CCN(CCC(C)C)Cc1ccc(C(=O)N2CCc3ccc(OS(N)(=O)=O)cc3C2)cc1 [3-EO-09] | 47.0 ± 13.0% | 90.8 ± 1.7% | –
30 | NS(=O)(=O)Oc1ccc2c(c1)CN(C(=O)c1ccc(CN3CCc4ccccc4C3)cc1)CC2 [3-EO-10] | 56.0 ± 7.2% | 83.0 ± 11.9% | –
31 | NS(=O)(=O)Oc1ccc2c(c1)CN(C(=O)c1ccc(CN(Cc3ccccc3)Cc3ccco3)cc1)CC2 [3-EO-11] | 91% and 90.8 ± 2.6% | 98.2 ± 0.4% | –
32 | CCN(Cc1ccc(C(=O)N2CCc3ccc(OS(N)(=O)=O)cc3C2)cc1)Cc1cccc(Br)c1 [3-EO-12] | 80% and 80.2 ± 8.0% | 97.2 ± 0.6% | –
33 | CCN(Cc1ccc(Br)cc1)Cc1ccc(C(=O)N2CCc3ccc(OS(N)(=O)=O)cc3C2)cc1 [3-EO-13] | 78% and 78.2 ± 1.7% | 95.9 ± 0.6% | –
34 | CCN(Cc1ccc(C(=O)N2CCc3ccc(OS(N)(=O)=O)cc3C2)cc1)Cc1ccccn1 [3-EO-14] | 42.5 ± 3.5% | 87.7 ± 0.7% | –
35 | CCN(Cc1ccc(C(=O)N2CCc3ccc(OS(N)(=O)=O)cc3C2)cc1)Cc1cccnc1 [3-EO-15] | 35.7 ± 4.3% | 85.2 ± 1.7% | –
36 | CCN(Cc1ccncc1)Cc1ccc(C(=O)N2CCc3ccc(OS(N)(=O)=O)cc3C2)cc1 [3-EO-16] | 47.0 ± 1.8% | 86.6 ± 1.8% | –
37 | CCN(Cc1ccc(F)cc1)Cc1ccc(C(=O)N2CCc3ccc(OS(N)(=O)=O)cc3C2)cc1 [3-EO-17] | 69.1 ± 1.9% | 91.2 ± 2.7% | –
38 | CCCN(Cc1ccccc1)Cc1cccc(C(=O)N2CCc3ccc(OS(N)(=O)=O)cc3C2)c1 [4-EO-01] | 23.1 ± 7.5% | 67.4 ± 10.9% | –
39 | NS(=O)(=O)Oc1ccc2c(c1)CN(C(=O)c1cccc(CN(CCO)Cc3ccccc3)c1)CC2 [4-EO-02] | 26.7 ± 7.2% | 32.4 ± 6.3% | –
40 | NS(=O)(=O)Oc1ccc2c(c1)CN(C(=O)c1cccc(CN(CCCO)Cc3ccccc3)c1)CC2 [4-EO-03] | 25.8 ± 3.9% | 37.3 ± 7.0% | –
41 | CN(C)CCN(Cc1ccccc1)Cc1cccc(C(=O)N2CCc3ccc(OS(N)(=O)=O)cc3C2)c1 [4-EO-04] | 0.0 ± 0.0% | 28.6 ± 2.2% | –
